These results are taken from patent publication US11781191B2, “Compositions and method for detecting Mycobacterium riyadhense” (King Abdullah University of Science and Technology, priority 2019, dated 2023).

For this test, the system named is M. riyadhense isolates. In words: antimicrobial susceptibility testing of clinical isolates. In kind it is cell-based, Mycobacterium riyadhense. Particulars: eight clinical M. riyadhense isolates; share of isolates susceptible.

For `NCC[C@H](O)C(=O)N[C@@H]1C[C@H](N)[C@@H](O[C@H]2O[C@H](CN)[C@@H](O)[C@H](O)[C@H]2O)[C@H](O)[C@H]1O[C@H]1O[C@H](CO)[C@@H](O)[C@H](N)[C@H]1O` [amikacin], the susceptibility of isolates was found to be 100%. As for `CC[C@H]1OC(=O)[C@H](C)[C@@H](O[C@H]2C[C@@](C)(OC)[C@@H](O)[C@H](C)O2)[C@H](C)[C@@H](O[C@@H]2O[C@H](C)C[C@H](N(C)C)[C@H]2O)[C@](C)(OC)C[C@@H](C)C(=O)[C@H](C)[C@@H](O)[C@]1(C)O` [clarithromycin], the susceptibility of isolates stood at 100%.

Regarding `CC[C@@H](CO)NCCN[C@@H](CC)CO` [ethambutol], the susceptibility of isolates stood at 100%. With `CC(=O)NC[C@H]1CN(c2ccc(N3CCOCC3)c(F)c2)C(=O)O1` [linezolid] the figure was 100%; with `COc1c(N2C[C@@H]3CCCN[C@@H]3C2)c(F)cc2c(=O)c(C(=O)O)cn(C3CC3)c12` [moxifloxacin], 100%.

On to `CO[C@H]1/C=C/O[C@@]2(C)Oc3c(C)c(O)c4c(c3C2=O)C2=NC3(CCN(CC(C)C)CC3)NC2=C(NC(=O)/C(C)=C\C=C\[C@H](C)[C@H](O)[C@@H](C)[C@@H](O)[C@@H](C)[C@H](OC(C)=O)[C@@H]1C)C4=O` [rifabutin], for which the susceptibility of isolates turned out to be 100%. On to `CO[C@H]1/C=C/O[C@@]2(C)Oc3c(C)c(O)c4c(O)c(c(/C=N/N5CCN(C)CC5)c(O)c4c3C2=O)NC(=O)/C(C)=C\C=C\[C@H](C)[C@H](O)[C@@H](C)[C@@H](O)[C@@H](C)[C@H](OC(C)=O)[C@@H]1C` [rifampin], for which the susceptibility of isolates came out at 100%.

As for trimethoprim-sulfamethoxazole, the susceptibility of isolates amounted to 100%.
